Source: patent publication US20240057596A1 (priority 2021, published 2024)
Like-named read-outs stand apart in the source and are kept apart here.

What was measured:
rice plants = type: in vivo, rice variety: PTT1; conditions: 750 g/ha; for Yield (kg/plot): plot 9 m2, 120 DAS
Rhizoctonia solani = assay: field trial sheath blight on rice in Thailand, percentage disease; type: in vivo; conditions: 750 g/ha, 2 sprays at 7 day interval; for percentage of disease (%): location L1; for percentage of sheath blight disease (%): location L2
Method: A field trial was established to test the efficacy of different compositions for control of sheath blight (Rhizoctonia solani) on rice in Thailand at two locations: L1: Bang Kham, Sriprachan, Suphanburi; and L2: Don Pru, Sriprachan, Suphanburi. Disease inoculation was performed 14 days before 1st spray.
At location L1, experimental design was randomize complete block (RCB); number of different treatments: six as provided in Table 11; number of replications: 4; plot size: 6×5 m/plot; rice variety: PTT1; and spray volume: 312.5 L/ha. One treatment had 4 replications, with one replication having 10 samplings.
Data assessments included percentage of length (cm) of the symptom infected and length of the plant (cm) before 1st spray; before 2nd spray; 7 days after 2nd spray; at 2 weeks after 2nd spray; at 3 weeks after 2nd spray; and at 2 weeks before harvest.
The percentage disease was calculated as follows:
Disease (%)=[length of infection symptom (cm)/length of plant (cm)]×100
At location L2, experimental design was randomize complete block (RCB); number of different treatments: six as provided in Table 11; number of replications: 4; plot size: 6×5 m/plot; rice variety: PTT1; and spray volume: 312.5 L/ha. One treatment had 4 replications, with one replication having 10 samplings.
Data assessments included percentage of length (cm) of the symptom infected and length of the plant (cm) before 1st spray; before 2nd spray; 7 days after 2nd spray; 2 weeks after 2nd spray; at 3 weeks after 2nd spray; and at 2 weeks before harvest.

## Cc1cccc2sc3nncn3c12 [Tricyclazole]
Rice plants; location L1
  Yield (kg/ha): 5861.11 kg/ha
  Yield (kg/rai): 937.78 kg/rai
  Yield (kg/plot): 5.28 kg/plot
Rice plants; location L2
  Yield (kg/ha): 6638.89 ab kg/ha
  Yield (kg/rai): 1062.22 kg/rai
  Yield (kg/plot): 5.98 kg/plot
Rhizoctonia solani; 2 WBH (106 DAS)
  percentage of disease (%): 35.63 b %
  percentage of sheath blight disease (%): 39.11 b %
Rhizoctonia solani; 7 DAA#2 (89 DAS)
  percentage of disease (%): 35.66 bc %
Rhizoctonia solani; 14 DAA#2 (96 DAS)
  percentage of disease (%): 37.90 c %
Rhizoctonia solani; 21 DAA#2 (103 DAS)
  percentage of disease (%): 35.89 c %
Rhizoctonia solani; BA#1 (before 1st spray, 75 DAS)
  percentage of disease (%): 22.57 a %
Rhizoctonia solani; BA#2 (before 2nd spray, 82 DAS)
  percentage of disease (%): 40.05 bc %
Rhizoctonia solani; 7 DAA#2 (84 DAS)
  percentage of sheath blight disease (%): 37.90 bc %
Rhizoctonia solani; 14 DAA#2 (91 DAS)
  percentage of sheath blight disease (%): 38.71 d %
Rhizoctonia solani; 21 DAA#2 (98 DAS)
  percentage of sheath blight disease (%): 39.75 d %
Rhizoctonia solani; BA#1 (before 1st spray, 70 DAS)
  percentage of sheath blight disease (%): 26.10 a %
Rhizoctonia solani; BA#2 (before 2nd spray, 77 DAS)
  percentage of sheath blight disease (%): 32.67 b %
